# Test results taken from article PMC4750701, “Role of Mitochondrial RNA Polymerase in the Toxicity of Nucleotide Inhibitors of Hepatitis C Virus” (Antimicrobial Agents and Chemotherapy, 2016).
# Assays:
# RNA PolII = target: T1, RNA PolII (Homo sapiens, UniProt P24928+P30876); experiment: Inhibition of RNA PolII (HeLaScribe nuclear extract transcription); format: biochemical; conditions: nucleotide analogs (Table 6); read-out: Mean IC50 ± SD for RNA PolII
# T1 construct: purchased as part of the HeLaScribe nuclear extract in vitro transcription system kit; purchased Promega (Madison, WI); host or cells: HeLa nuclear extract (endogenous enzyme)
# From the text: (§1) Activated fish sperm DNA was purchased from USB/Affymetrix (Santa Clara, CA) and used as a template for the DNA polymerases alpha, beta, and gamma. The DNA template used in the RNA Pol II assay was a 1,188-bp restriction fragment containing the cytomegalovirus (CMV) immediate early promoter (Promega, Madison, WI). The RNA and DNA oligonucleotides used in the mitochondrial RNA polymerase assay (see Table S1 in the supplemental material) were synthesized and PAGE purified by Thermo Scientific/Dharmacon (Lafayette, CO). RNA primer R12 was 5′-^32P-phosphorylated with [γ-^32P]ATP (3,000 Ci/mmol) and T4 kinase (New England BioLabs, Ipswich, MA).
# (§2) Human DNA polymerase alpha, isolated from HeLa cell extracts, was from CHIMERx (Madison, WI). Recombinant human DNA polymerase beta, expressed in E. coli, was a gift from Zucai Suo at The Ohio State University. Recombinant human DNA polymerase gamma (including both the large subunit and the small subunit) was cloned, expressed, and purified from insect cells by Gilead Sciences (Foster City, CA) ([13]). RNA PolII was purchased as part of the HeLaScribe nuclear extract in vitro transcription system kit from Promega (Madison, WI). The recombinant human PolRMT and the transcription factors mitochondrial transcription factor A (mtTFA) and B2 (mtTFB2) were purchased from Enzymax (Lexington, KY). FLAG epitope-tagged RNA PolI and PolIII complexes were isolated from rat NSN1 cells and HeLa cells, respectively ([17], [18]). The inhibition of DNA polymerases alpha, beta, and gamma, PolRMT, and PolII and the rate of single-nucleotide incorporation by PolRMT have been described previously in detail ([12], [13], [19]). Inhibition of RNA PolI and PolIII was studied using published methods ([20], [21]). All concentrations were final unless noted otherwise. For the RNA PolI inhibition assay, a reaction mixture containing 50 mM HEPES (pH 7.9), 20% glycerol, 100 mM KCl, 1 mM dithiothreitol (DTT), 50 μg/ml calf thymus DNA, 4 mM MgCl2, 5 or 80 μM UTP (0.25 μl of [5,6-^3H]UTP, >25 Ci/mmol; PerkinElmer), 1 mM noncompeting NTP, competing NTP (5 μM for GTP, CTP, and UTP and 25 μM for ATP), and various concentrations (0 to 500 μM) of NTP analogs was preincubated at 30°C for 5 min. […] After incubation at 30°C for 20 min to 1 h, the reactions were terminated by pipetting the mixtures onto DEAE-cellulose discs (DE81; Whatman), and the products analyzed as described previously ([20], [21]).
# RNA PolIII = target: T2, RNA PolIII (Homo sapiens, UniProt O14802+Q9NW08); experiment: RNA PolIII inhibition assay; format: biochemical; conditions: competing NTP 100 μM CTP and GTP, 500 μM ATP; read-out: Mean IC50 ± SD for RNA PolIII
# T2 construct: complexes were isolated from rat NSN1 cells and HeLa cells, respectively; made in house; host or cells: HeLa cells expressing a FLAG-tagged Pol III subunit
# From the text: as §2
# The RNA PolIII inhibition assay was conducted in a similar manner, except that the concentrations of the competing NTP were modified to 100 μM for CTP and GTP and 500 μM for ATP to compensate for the low assay signal at lower NTP concentrations.
# RNA PolI = target: T3, RNA PolI (Rattus norvegicus, UniProt O54889); experiment: RNA PolI inhibition assay; format: biochemical; conditions: NTP analogs 0 to 500 μM; read-out: Mean IC50 ± SD for RNA PolI
# T3 construct: complexes were isolated from rat NSN1 cells and HeLa cells, respectively; made in house; host or cells: rat NSN1 cells expressing a FLAG-tagged Pol I subunit
# From the text: as §2
# recombinant human PolRMT = target: T4, recombinant human PolRMT (Homo sapiens, UniProt O00411); experiment: Single-nucleotide incorporation by PolRMT; format: biochemical; conditions: triphosphate form, fixed saturating concentration 500 μM, rate relative to corresponding natural rNTP
# T4 construct: purchased Enzymax (Lexington, KY)
# From the text: as §1, §2
# Supplementary Table S1: RNA primer and templates used in mitochondrial RNA
# polymerase single nucleotide incorporation assay.
# Oligonucleotides Sequencesa
# Primer (R12) 5’-[…]-3’
# Templates (D18) 3’-[…]-5’
# a The bold letter in the template sequences denotes the bases that pair with the incoming NTP. […]
# [1] = Bone marrow myeloid progenitor colony assay, 14 days; format: cell-based, human; conditions: human, human bone marrow myeloid progenitors, read-out: Mean CC50 ± SD in Bone marrow cells Myeloid
# [2] = Cytotoxicity / ATP level in PC-3 cells, 5-day treatment; conditions: human, PC-3 cells
# Experimental: (§4) All cells were cultured at 37°C in a 5% CO2 incubator with 90% humidity unless noted otherwise. […] All cells were treated with the various compounds for 5 days, except for human erythroid and myeloid progenitors, which were treated for 14 days. After the incubation period, cell viability was measured by the addition of CellTiter Glo viability reagents (Promega, Madison, WI). The luminescence signal was quantified on an Envision luminescence plate reader (PerkinElmer, Waltham, MA) after incubation of the reagents and cells for 10 min at room temperature. […] CC50 values were calculated as the average of the results of three or four independent experiments.
# Cell Culture and Cytotoxicity Studies
# (§5) The Huh-7 cells were maintained in growth medium containing Dulbecco's Modified Eagle
# (§6) Medium (DMEM, Cellgro) supplemented with 1% Nonessential Amino Acids (NEAA, Cellgro,
# (§7) Manassas, VA), 10% fetal bovine serum (FBS, HyClone, Logan, UT) and 1% Penicillin-
# (§8) streptomycin-glutamate (PSG, Invitrogen, Carlsbad, CA). The cells were passaged twice weekly
# (§9) and maintained at 90% confluence densities.
# (§10) The HepG2 cells were maintained in Eagle’s Minimum Essential Medium (EMEM) from ATCC
# (§11) (Manassas, VA) supplemented with 10% FBS, 100 units/mL penicillin and 100 µg/mL
# (§12) streptomycin (P/S) (Gibco). The cells were passaged twice weekly and maintained at 90%
# (§13) The PC-3 cells were maintained in Kaighn’s F12 medium (Gibco, Carlsbad, CA) supplemented
# (§14) with 10% FBS (HyClone, Logan, UT), 100 units/mL penicillin and 100 µg/mL streptomycin
# (§15) (P/S) (Gibco). The cells were passaged twice weekly and maintained at 90% confluence. Cells
# (§16) between passages 4 and 15 were used in the assays.
# (§17) The fibroblast cell line MRC-5 cell line derived from normal lung tissue, was purchased from
# (§18) ATCC (Manassas, VA) and cultured in Minimum Essential Medium (MEM) (Cellgro, Manassas,
# (§19) VA) supplemented with 10% FBS (HyClone, Logan, UT) and 1% PSG (Invitrogen). The cells
# (§20) were passaged twice weekly and maintained at 90% confluence densities.
# [3] = Bone marrow erythroid progenitor colony assay, 14 days; format: cell-based, human; conditions: human, human bone marrow erythroid progenitors, read-out: Mean CC50 ± SD in Bone marrow cells Erythroid
# [4] = Cytotoxicity in quiescent PBMCs, 5 days; conditions: human, quiescent PBMCs
# Experimental: (§21) Human peripheral blood mononuclear cells (PBMCs) were isolated from human buffy coats obtained from healthy volunteers (Stanford Blood Bank, Palo Alto, CA) using standard Ficoll separation and stimulated as described elsewhere ([13]) and were tested at both quiescent and stimulated stages. Quiescent PBMCs were stimulated with 10 units per ml of recombinant human interleukin 2 (hIL-2) and 1 μg per ml phytohemagglutinin P (PHA-P) for 48 h prior to drug treatment.
# as §4
# (§22) Human peripheral blood mononuclear cells (PBMCs) were isolated from human buffy coats
# (§23) obtained from normal healthy volunteers (Stanford Medical School Blood Center, Palo Alto,
# (§24) CA). Total PBMCs were isolated from buffy coats using standard Ficoll separation and sterile
# (§25) cellular isolation techniques performed in a bio-safety cabinet (1). Except where noted, the
# (§26) procedure was carried out at room temperature. The final PBMCs pellet was resuspended in
# (§27) Logan, UT), penicillin 100 units/mL and streptomycin 100 µg/mL (Gibco). For quiescent
# (§28) PBMCs cultures, total cells were seeded in 96-well plates at a density of 1 x 10^6 cells per well, followed by immediate drug treatment. Stimulated PBMCs cultures were set up by seeding the freshly isolated PBMCs in T-175cm2 tissue culture flasks in 100 mL of RPMI containing the same components as the ones used for the quiescent PBMCs but with the addition of 10 units per mL of recombinant human interleukin-2 (hIL-2, Roche, Indianapolis, IN), and 1 µg per mL phytohemagglutinin-P (PHA-P, Sigma-Aldrich, St. Louis, MO) at density of 2  10^6 cells per mL for 48 hours at 37C in a 5% CO2 incubator with 90% humidity, prior to drug treatment.
# [5] = Cytotoxicity in stimulated PBMCs, 5 days; conditions: human, stimulated PBMCs
# Experimental: as §21, §4, §22, §23, §24, §25, §26, §27, §28
# [6] = Cytotoxicity in Huh7 cells, 5-day treatment (CellTiter Glo); conditions: human, Huh-7 cells
# Experimental: as §4
# Cell Culture and Cytotoxicity Studies
# as §5, §6, §7, §8, §9, §10, §11, §12, §13, §14, §15, §16, §17, §18, §19, §20
# [7] = system: mitochondrial DNA-encoded cytochrome c oxidase (COX-1; complex IV) protein level; experiment: Mitochondrial protein synthesis assay (COX-1, MitoBiogenesis in-cell ELISA) in PC-3 cells; format: cell-based, human; conditions: human; PC-3 cells, COX-1, 5 days; read-out: Mean CC50 ± SD causing Mitochondrial toxicity: Protein synthesis
# Experimental: (§3) PC-3 cells were treated with the compounds for 5 days and analyzed with the MitoTox MitoBiogenesis in-cell enzyme-linked immunosorbent assay (ELISA) kit (MitoSciences/Abcam, Eugene, Oregon) as described previously ([13]). The assay uses quantitative immunocytochemistry to measure the protein levels of nuclear DNA-encoded succinate dehydrogenase (SDH-A; complex II [succinate dehydrogenase]) and mitochondrial DNA-encoded cytochrome c oxidase (COX-1; complex IV [cytochrome c oxidase]) in cultured cells.
# [8] = system: mitochondrial DNA-encoded cytochrome c oxidase (COX-1); experiment: as above; format: cell-based, human; conditions: PC-3 cells
# Experimental: as §3
# [9] = system: mitochondrial spare respiratory capacity in PC-3 cells; experiment: Oxygen consumption rate / spare respiratory capacity in PC-3 cells; conditions: PC-3 cells, 3-day treatments
# [10] = system: mitochondrial spare respiratory capacity; experiment: as above; conditions: human, pH 7.4
# [11] = Cytotoxicity in MT-4 T-cells, 5-day treatment; conditions: human, MT-4 cells
# Experimental: Primary human hepatocytes were from Bioreclamation IVT (Westbury, NY) or Life Technologies (Carlsbad, CA).
# as §4
# [12] = Cytotoxicity in primary human hepatocytes, 5 days; conditions: human, primary human hepatocytes
# [13] = system: nuclear DNA-encoded succinate dehydrogenase (SDH-A; complex II) protein level; experiment: Nuclear protein synthesis (SDH-A, MitoBiogenesis in-cell ELISA) in PC-3 cells; format: cell-based, human; conditions: human, read-out: Mean CC50 ± SD causing General cellular toxicity: Protein synthesis
# Experimental: as §3
# [14] = Cytotoxicity in MRC5 fibroblasts, 5-day treatment; conditions: human, MRC5 fibroblasts
# Experimental: as §4
# Cell Culture and Cytotoxicity Studies
# as §5, §6, §7, §8, §9, §10, §11, §12, §13, §14, §15, §16, §17, §18, §19, §20
# [15] = Cytotoxicity in HepG2 (galactose) cells, 5-day treatment; conditions: human, HepG2 cells (galactose)
# Experimental: as §4
# Cell Culture and Cytotoxicity Studies
# as §5, §6, §7, §8, §9, §10, §11, §12, §13, §14, §15, §16, §17, §18, §19, §20
# [16] = target: T5, Recombinant human DNA polymerase gamma (Homo sapiens, UniProt P54098); experiment: Inhibition of human DNA polymerase gamma; format: biochemical; conditions: triphosphate form of the compound tested; read-out: Mean IC50 ± SD for DNA Pol γ
# T5 construct: made in house; host or cells: insect cells
# T5 sequence (P54098 1-1239): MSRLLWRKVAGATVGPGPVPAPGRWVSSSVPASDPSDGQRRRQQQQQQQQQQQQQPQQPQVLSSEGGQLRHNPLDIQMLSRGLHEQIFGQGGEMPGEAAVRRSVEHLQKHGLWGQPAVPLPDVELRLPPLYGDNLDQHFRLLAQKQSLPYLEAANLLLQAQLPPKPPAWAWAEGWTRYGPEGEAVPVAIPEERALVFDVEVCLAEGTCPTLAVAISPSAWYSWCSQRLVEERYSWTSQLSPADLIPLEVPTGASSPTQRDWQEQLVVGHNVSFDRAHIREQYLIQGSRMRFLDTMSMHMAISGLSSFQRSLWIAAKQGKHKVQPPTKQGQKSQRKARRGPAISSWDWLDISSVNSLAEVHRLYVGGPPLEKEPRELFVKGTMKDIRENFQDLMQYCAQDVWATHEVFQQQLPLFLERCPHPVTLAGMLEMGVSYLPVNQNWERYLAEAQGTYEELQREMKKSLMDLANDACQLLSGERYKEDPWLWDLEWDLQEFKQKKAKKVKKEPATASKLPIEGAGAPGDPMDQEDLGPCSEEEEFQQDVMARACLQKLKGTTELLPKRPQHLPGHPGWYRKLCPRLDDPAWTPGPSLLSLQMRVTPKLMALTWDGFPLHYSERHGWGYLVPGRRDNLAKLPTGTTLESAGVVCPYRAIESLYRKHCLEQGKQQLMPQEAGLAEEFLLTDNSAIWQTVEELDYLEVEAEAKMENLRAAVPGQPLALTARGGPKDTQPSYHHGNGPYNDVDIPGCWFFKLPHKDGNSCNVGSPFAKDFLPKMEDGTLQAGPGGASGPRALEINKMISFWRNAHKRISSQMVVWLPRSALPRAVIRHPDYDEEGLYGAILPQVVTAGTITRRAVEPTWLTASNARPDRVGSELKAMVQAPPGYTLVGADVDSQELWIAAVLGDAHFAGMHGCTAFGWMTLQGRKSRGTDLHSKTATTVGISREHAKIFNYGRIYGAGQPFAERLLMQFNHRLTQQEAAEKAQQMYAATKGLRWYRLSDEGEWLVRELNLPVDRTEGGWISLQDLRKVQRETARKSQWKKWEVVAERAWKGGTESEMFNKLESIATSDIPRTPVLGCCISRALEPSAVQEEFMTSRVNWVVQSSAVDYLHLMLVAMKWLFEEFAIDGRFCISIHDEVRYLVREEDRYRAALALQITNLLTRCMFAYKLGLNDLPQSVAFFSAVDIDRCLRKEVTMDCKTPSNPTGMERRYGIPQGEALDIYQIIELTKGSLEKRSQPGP
# T5 sequence (Q9UHN1 26-485 partner limits assumed): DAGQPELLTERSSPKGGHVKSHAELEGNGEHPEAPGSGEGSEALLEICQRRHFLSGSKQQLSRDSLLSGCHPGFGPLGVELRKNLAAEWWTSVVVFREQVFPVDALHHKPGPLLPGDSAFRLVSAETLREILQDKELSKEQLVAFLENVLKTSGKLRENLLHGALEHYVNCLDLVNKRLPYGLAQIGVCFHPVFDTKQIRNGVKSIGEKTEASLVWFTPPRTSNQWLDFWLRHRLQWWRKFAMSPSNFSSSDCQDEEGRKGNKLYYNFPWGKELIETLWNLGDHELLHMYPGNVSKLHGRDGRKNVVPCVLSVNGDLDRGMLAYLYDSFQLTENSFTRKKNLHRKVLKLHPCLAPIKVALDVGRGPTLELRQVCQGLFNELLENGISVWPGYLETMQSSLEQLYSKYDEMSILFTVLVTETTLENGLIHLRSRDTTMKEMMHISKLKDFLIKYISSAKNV
# From the text: as §1, §2
# [17] = target: T6, Recombinant human DNA polymerase beta (Homo sapiens, UniProt P06746); experiment: Inhibition of human DNA polymerase beta; format: biochemical; conditions: triphosphate form of the compound tested; read-out: Mean IC50 ± SD for DNA Pol β
# T6 construct: host or cells: E. coli
# From the text: as §1, §2
# T3 sequence (O54889 whole entry): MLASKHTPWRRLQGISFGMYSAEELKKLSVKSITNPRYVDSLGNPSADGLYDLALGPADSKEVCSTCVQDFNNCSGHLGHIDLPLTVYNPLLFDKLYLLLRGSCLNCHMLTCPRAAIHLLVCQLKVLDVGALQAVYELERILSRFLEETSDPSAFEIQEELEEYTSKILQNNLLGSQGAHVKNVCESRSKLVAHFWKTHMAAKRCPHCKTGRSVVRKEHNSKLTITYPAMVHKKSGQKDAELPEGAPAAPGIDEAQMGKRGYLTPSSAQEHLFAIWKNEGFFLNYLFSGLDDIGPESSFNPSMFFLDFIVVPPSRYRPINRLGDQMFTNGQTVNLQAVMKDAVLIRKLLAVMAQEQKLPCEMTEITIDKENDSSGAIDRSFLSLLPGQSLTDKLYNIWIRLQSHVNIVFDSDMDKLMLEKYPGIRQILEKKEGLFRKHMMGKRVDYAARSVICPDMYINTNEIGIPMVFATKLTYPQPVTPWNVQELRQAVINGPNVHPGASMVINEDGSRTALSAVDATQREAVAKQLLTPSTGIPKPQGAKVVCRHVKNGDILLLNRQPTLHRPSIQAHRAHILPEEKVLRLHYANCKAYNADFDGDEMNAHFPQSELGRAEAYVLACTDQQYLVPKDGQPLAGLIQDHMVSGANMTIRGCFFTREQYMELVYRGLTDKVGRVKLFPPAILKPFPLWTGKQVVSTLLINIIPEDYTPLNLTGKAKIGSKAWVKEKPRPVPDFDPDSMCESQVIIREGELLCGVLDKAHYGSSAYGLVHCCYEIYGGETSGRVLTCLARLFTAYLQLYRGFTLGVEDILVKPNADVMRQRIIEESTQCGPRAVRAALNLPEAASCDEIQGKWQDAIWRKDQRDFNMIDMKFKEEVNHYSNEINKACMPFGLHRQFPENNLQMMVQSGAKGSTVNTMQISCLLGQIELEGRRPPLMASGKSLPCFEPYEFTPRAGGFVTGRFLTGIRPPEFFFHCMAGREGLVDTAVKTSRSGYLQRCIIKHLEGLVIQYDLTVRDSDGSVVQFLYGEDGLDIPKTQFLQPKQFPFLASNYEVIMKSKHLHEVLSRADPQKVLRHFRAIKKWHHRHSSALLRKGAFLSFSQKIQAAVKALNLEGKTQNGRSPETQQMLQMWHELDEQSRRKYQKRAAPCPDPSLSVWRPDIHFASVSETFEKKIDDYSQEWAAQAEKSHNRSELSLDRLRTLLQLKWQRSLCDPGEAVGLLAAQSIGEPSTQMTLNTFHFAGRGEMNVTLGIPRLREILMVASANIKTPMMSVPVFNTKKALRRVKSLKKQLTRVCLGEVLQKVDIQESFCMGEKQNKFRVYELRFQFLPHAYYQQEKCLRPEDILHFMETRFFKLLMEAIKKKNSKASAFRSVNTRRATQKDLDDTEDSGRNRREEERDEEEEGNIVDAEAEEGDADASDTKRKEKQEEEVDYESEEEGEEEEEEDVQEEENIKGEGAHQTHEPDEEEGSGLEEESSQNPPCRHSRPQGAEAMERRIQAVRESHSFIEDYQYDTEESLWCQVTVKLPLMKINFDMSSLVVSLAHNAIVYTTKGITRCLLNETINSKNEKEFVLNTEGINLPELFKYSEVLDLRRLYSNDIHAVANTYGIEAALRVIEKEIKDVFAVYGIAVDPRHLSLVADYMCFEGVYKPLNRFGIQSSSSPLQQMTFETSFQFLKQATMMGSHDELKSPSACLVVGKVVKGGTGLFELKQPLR
# T4 sequence (O00411 42-1230): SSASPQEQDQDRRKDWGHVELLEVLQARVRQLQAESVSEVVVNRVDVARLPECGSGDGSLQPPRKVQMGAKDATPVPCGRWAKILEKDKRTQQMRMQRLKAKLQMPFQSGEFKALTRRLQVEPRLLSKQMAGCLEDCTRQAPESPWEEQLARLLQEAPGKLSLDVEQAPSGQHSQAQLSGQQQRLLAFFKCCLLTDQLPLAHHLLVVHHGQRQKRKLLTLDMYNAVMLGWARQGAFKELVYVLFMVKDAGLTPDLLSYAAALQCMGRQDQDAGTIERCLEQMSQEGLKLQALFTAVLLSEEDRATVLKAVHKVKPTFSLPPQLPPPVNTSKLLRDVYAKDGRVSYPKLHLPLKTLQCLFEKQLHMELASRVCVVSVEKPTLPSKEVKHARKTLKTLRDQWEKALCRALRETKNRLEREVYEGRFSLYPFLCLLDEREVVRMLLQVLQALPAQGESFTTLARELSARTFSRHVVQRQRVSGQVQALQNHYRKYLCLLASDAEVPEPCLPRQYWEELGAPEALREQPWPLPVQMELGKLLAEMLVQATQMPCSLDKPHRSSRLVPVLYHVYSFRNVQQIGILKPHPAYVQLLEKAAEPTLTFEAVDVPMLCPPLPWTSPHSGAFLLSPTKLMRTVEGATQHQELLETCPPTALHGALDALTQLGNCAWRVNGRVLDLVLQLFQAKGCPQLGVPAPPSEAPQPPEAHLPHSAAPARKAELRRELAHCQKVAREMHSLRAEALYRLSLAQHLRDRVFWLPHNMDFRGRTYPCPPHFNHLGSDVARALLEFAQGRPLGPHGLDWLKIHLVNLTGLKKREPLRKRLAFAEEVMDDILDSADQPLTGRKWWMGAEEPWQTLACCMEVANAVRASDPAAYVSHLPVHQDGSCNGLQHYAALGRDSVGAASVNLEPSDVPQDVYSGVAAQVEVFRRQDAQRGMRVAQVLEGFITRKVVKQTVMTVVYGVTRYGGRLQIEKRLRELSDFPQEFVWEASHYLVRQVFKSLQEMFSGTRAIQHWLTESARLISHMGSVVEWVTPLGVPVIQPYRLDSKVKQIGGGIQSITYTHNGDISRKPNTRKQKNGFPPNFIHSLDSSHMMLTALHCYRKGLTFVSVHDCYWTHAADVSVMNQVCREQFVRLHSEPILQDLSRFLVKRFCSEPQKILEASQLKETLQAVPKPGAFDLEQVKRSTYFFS
smiles,measurement,setting,value
C[C@@]1(O)[C@H](O)[C@@H](COP(=O)(O)OP(=O)(O)OP(=O)(O)O)O[C@H]1n1ccc(N)nc1=O [2′CMeCTP],IC50,RNA PolII,> 500 µM
same,IC50,RNA PolIII,> 500 µM
same,IC50,RNA PolI,260 ± 40 µM
CC(C)C(=O)OC[C@H]1O[C@@H](n2ccc(N)nc2=O)[C@](C)(F)[C@@H]1OC(=O)C(C)C [mericitabine],Substrate incorporation (% of NTP [mean ± SD]) of PolRMT,recombinant human PolRMT,< 1 % of NTP
O=C(N[C@H](CO)[C@H](O)c1ccc([N+](=O)[O-])cc1)C(Cl)Cl [Chloramphenicol],CC50 at 14 days,[1],> 100 µM
same,CC50 at 5 days,[2],16 ± 3 µM
same,CC50 at 14 days,[3],82 ± 29 µM
same,CC50 at 5 days,[4],> 100 µM
same,CC50 at 5 days,[5],> 100 µM
same,CC50 at 5 days,[6],> 89 µM
same,CC50 at 5 days,[7],2.6 ± 0.6 µM
same,selectivity of effect on COX-1 versus SDH-A and ATP levels,[8]; 5-day treatments,specifically inhibited COX-1 synthesis
same,selectivity of effect on spare respiratory capacity versus DNA and ATP levels,[9],specifically inhibited mitochondrial spare respiratory capacity
same,CC50 at 3 days,[10],4.5 ± 1.5 µM
same,CC50 at 5 days,[11],> 89 µM
same,CC50 at 5 days,[12],> 100 µM
same,CC50 at 5 days,[13],> 50 µM
same,CC50 at 5 days,[14],> 89 µM
same,CC50 at 5 days,[15],> 89 µM
"NC(=O)c1ncn([C@@H]2O[C@H](CO)[C@@H](O)[C@H]2O)n1 [RBV, ribavirin]",effect on mitochondrial or nuclear protein synthesis or ATP level,"[8]; 5-day treatment, 10 μM",no appreciable effect
Cc1cn([C@H]2CC[C@@H](COP(=O)(O)OP(=O)(O)OP(=O)(O)O)O2)c(=O)[nH]c1=O [3′dTTP],IC50,[16],1.2 ± 0.6 µM
same,IC50,[17],1.9 ± 0.8 µM
C[C@@]1(O)[C@H](O)[C@@H](COP(=O)(O)OP(=O)(O)OP(=O)(O)O)O[C@H]1n1cnc2c(N)ncnc21 [2′CMeATP],IC50,RNA PolII,> 500 µM
same,IC50,RNA PolIII,> 500 µM
same,IC50,RNA PolI,190 ± 40 µM
